This assay concerns the target T1, hFXR (Homo sapiens, UniProt Q96RI1).
T1 construct: expressed in transfected cells; host or cells: CV-1 cells
T1 sequence (Q96RI1 1-486): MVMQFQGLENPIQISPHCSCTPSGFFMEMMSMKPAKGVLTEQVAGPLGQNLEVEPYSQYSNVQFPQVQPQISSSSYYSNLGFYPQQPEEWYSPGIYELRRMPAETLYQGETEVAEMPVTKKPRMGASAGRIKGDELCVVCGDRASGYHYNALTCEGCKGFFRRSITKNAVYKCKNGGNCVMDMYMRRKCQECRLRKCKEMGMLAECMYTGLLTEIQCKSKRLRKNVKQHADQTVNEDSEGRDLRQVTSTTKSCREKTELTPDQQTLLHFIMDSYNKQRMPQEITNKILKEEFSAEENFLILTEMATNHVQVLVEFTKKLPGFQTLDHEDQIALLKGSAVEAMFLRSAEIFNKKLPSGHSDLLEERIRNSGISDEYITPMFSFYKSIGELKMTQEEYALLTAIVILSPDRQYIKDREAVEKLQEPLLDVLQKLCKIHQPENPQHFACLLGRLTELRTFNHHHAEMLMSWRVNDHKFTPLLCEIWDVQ
T1 sequence (P19793 1-462 partner): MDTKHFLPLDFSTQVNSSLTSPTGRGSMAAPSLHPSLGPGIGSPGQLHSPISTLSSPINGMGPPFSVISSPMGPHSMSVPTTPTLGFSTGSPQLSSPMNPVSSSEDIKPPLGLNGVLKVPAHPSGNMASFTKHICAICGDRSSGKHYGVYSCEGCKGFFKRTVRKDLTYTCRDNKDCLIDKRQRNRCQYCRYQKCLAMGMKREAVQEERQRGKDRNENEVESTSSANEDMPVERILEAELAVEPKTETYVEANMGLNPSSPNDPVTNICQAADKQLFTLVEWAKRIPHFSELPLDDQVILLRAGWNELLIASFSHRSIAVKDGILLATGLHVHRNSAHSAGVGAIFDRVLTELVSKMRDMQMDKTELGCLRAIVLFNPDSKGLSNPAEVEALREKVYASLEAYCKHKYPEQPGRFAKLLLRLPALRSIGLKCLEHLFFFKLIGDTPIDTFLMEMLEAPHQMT
Nature of the assay: In Vitro FXR Assay (TK). The conditions noted are these: CV-1 cells transfected with hFXR, hRXR, TK-ECRE-luc and pCMX-YFP; incubated with compound for 18 hrs; luminescence. It is filed as cell-based. An outline of the steps: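 CV-1, DMEM/10% charcoal-stripped FBS, 37 °C 5% CO2. Transfection O/N: hFXR + hRXR + TK-ECRE-luc + pCMX-YFP. Cpds (DMSO serial dil.) 18 h; lyse, read luminescence.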

`COc1ccc(C23CCC(CN(c4ccc(F)c(-c5cnn(C(C)C)c5)c4)C(=O)[C@H]4CC[C@H](CC(=O)O)CC4)(CC2)CC3)cc1C` [Compound 2.09, trans-2-(4-((4-Fluoro-3-(1-isopropyl-1H-pyrazol-4-yl)phenyl)((4-(4-methoxy-3-methylphenyl)bicyclo[2.2.2]octan-1-yl)methyl)carbamoyl)cyclohexyl)acetic acid]: the EC50 is ≤ 50 nM. With `COc1ccc([C@H]2CC[C@H](CN(c3cccc(-c4cnn(C(C)(C)C)c4)c3)C(=O)[C@H]3CC[C@H](CC(=O)O)CC3)CC2)cc1C` [Compound 2.04, 2-(trans-4-((3-(1-(tert-Butyl)-1H-pyrazol-4-yl)phenyl)((trans-4-(4-methoxy-3-methylphenyl)cyclohexyl)methyl)carbamoyl)cyclohexyl)acetic acid], the EC50 is ≤ 50 nM.
